From patent US8940788B2, “Anti-angiogenic composition containing macrolactin A and a derivative thereof as active ingredients” (Daewoo Pharmaceutical Ind. Co., Ltd., priority 2010, dated 2015)

Experiments:
[1] = tested on: chorioallantoic membrane (CAM) neovascular formation induced by VEGF; assay: CAM analysis of suppressive effect on angiogenesis, neovascular formation induced by VEGF; assay type: in vivo, chicken; settings: VEGF 20 ng/CAM; for suppression of neovascular formation caused by VEGF (number of blood vessel branches): various concentrations of compound, three days after treatment
Experimental: (§1) In order to confirm an anti-angiogenic effect of the macrolactin compounds in in vivo test, chorioallantoic membrane (CAM) analysis was carried out (Nguyen M. et al., Microvascular Res., 47, pp. 31-40, 1994). 6±1 fertile eggs were used per group.
(§2) Fertile chicken eggs were cultured while maintaining the temperature of 37° C. and the relative humidity of 55%. On the third day of culture, a first small hole was made in the air sac part with a hypodermic needle (Green Cross Medical Corporation, Korea), and a second hole was made in the plat part of the fertile eggs to make a window.
(§3) The CAM was separated from the eggshell by expelling the air through the first hole in the air sac, and then the part was cut with a grinding wheel (Multipro 395JA, Dremel, Mexico) to make a window.
(§4) A Whatman filter disc #1 (Whatman, USA) was treated with 3 mg/ml of cortisone acetate and dried. The filter disc was treated with 10 μl of VEGF, TNF-α or IL-8 (20 ng/CAM).
(§5) Through the pre-made window, the filter disc was put on blood vessel, and then treated with various concentrations of MA, MMA or SMA which was dissolved in DMSO and diluted with PBS.
Three days after treatment, the CAM part with the filter disc was separated and washed with phosphate buffer solution. The photographs were taken by using a stereomicroscope (Leica, Wetzlar, Germany) and Image-Pro Plus software (Media Cybernetics; Silver Spring, Md., USA) to determine the number of bleed vessel branches and to analyze the data.
All data were represented as mean±standard error of mean, and the statistical analysis was done as one-way ANOVA by using GraphPad Prism 4 Software (San Diego, Calif., USA). Multiple comparisons between the differences of each group were made by using the NK (Newman-Keuls) method. When p-value was less than 0.05, the data were regarded as statistically significant.

[2] = tested on: Human fibrosarcoma cells (HT-1080); assay: Infiltration test of fibrosarcoma cells (suppressive effect on metastasis of cancer), transwell with Matrigel; assay type: cell-based; settings: 18 hours
Experimental: Human fibrosarcoma cells (HT-1080) were cultured in DMEM containing 10% fetal bovine serum (FBS) and 1% penicillin/streptomycin (PS) under the condition of 37° C. and 5% CO2. When the cells grew to fill 80% or more of the culture flask, they were subcultured at a ratio of 1:3 and used in this test. In order to confirm the suppressive effect of the macrolactin compounds on metastasis of cancer in in vitro experiments, an infiltration test of fibrosarcoma cells was carried out by using a 24-well transwell attached with a polycarbonate filter of […] pore size. Firstly, the bottom side of the filter was coated with Collagen Type I (0.5 mg/ml), and then the upper side of the filter was coated with Matrigel (1.5 mg/ml). After coating, the lower part of the insert was filled with a medium containing 5% FBS, and the upper part was filled with serum-free medium human fibrosarcoma cells (HT-1080) which were incubated for 18 hours in a cell incubator. The human fibrosarcoma cells infiltrated into the bottom side of the filter were fixed with methanol and then dyed with hematoxylin and eosin. The infiltrated cells were observed under a microscope, and 3 parts were randomly selected from each filter to take photographs and determine the number of cells (Kim, M. S. et al., Cancer Res., 63, pp. 5454-5461, 2003; Park, B. C. et al., Eur. J. Pharm., 567, pp. 193-197, 2007).

[3] = tested on: chorioallantoic membrane (CAM) neovascular formation induced by TNF-α; assay: CAM analysis of suppressive effect on angiogenesis, neovascular formation induced by TNF-α; assay type: in vivo, chicken; settings: TNF-α 20 ng/CAM; various concentrations of compound; three days after treatment
Experimental: as §1, §2, §3, §4, §5
(§6) Three days after treatment, the CAM part with the filter disc was separated and washed with phosphate buffer solution. […]

[4] = tested on: chorioallantoic membrane (CAM) neovascular formation induced by IL-8; assay: CAM analysis of suppressive effect on angiogenesis, neovascular formation induced by IL-8; assay type: in vivo, chicken; settings: IL-8 20 ng/CAM; various concentrations of compound; three days after treatment
Experimental: as §1, §2, §3, §4, §5, §6

**Q.** With `C[C@@H]1CCC/C=C/C=C/[C@H](O)C[C@@H](O)C/C=C\C=C\[C@@H](OC(=O)CC(=O)O)C/C=C/C=C\C(=O)O1` [MMA, 7-O-malonyl macrolactin A] as the compound, how does the “suppression of neovascular formation caused by VEGF (number of blood vessel branches)” value [1] read?
**A.** strongly suppressed

**Q.** For `CC1CCC/C=C/C=C/[C@H](O)C[C@@H](O)C/C=C\C=C\[C@@H](O)C/C=C/C=C\C(=O)O1` (stereo partly drawn) [MA, macrolactin A], which “dose dependence of suppression of metastasis (infiltration) of fibrosarcoma cells induced by 5% FBS” value [2] is on record?
**A.** in a dose-dependent way

**Q.** And the “suppression of neovascular formation caused by TNF-α (number of blood vessel branches)” value [3]?
**A.** strongly suppressed

**Q.** What about the “suppression of neovascular formation caused by IL-8 (number of blood vessel branches)” value [4] of the same compound?
**A.** strongly suppressed

**Q.** What about the “suppression of neovascular formation caused by VEGF (number of blood vessel branches)” value [1] of the same compound?
**A.** strongly suppressed

**Q.** Which results are given for `C[C@@H]1CCC/C=C/C=C/[C@H](O)C[C@@H](O)C/C=C\C=C\[C@@H](OC(=O)CCC(=O)O)C/C=C/C=C\C(=O)O1` [SMA, 7-O-succinyl macrolactin A]?
**A.** dose dependence of suppression of metastasis (infiltration) of fibrosarcoma cells induced by 5% FBS [2]: in a dose-dependent way; suppressive effect on metastasis (infiltration) of fibrosarcoma cells induced by 5% FBS ([2]; compound 1 μM): significant suppressive effect; suppressive effect on metastasis (infiltration) of fibrosarcoma cells induced by 5% FBS ([2]; compound 5 μM): superior suppressive effect on the metastasis comparable to that of batimastat; suppression of neovascular formation caused by TNF-α (number of blood vessel branches) [3]: strongly suppressed; suppression of neovascular formation caused by IL-8 (number of blood vessel branches) [4]: strongly suppressed; dose dependence of suppression of neovascular formation caused by VEGF ([1]; various concentrations): suppressed neovascular formation in a dose-dependent way; suppression of neovascular formation caused by VEGF (number of blood vessel branches) [1]: strongly suppressed
